Laboratory results from patent US12493040B2, “Cancer detection method using sense of smell of nematode” (HIROTSU BIO SCIENCE INC., priority 2013, dated 2025).

System: RNAi-treated eri-1 (mg366) nematodes
Assay: RNAi screening of olfactory receptor genes: chemotaxis assay of RNAi-treated nematodes to odorants
Type: in vivo, Caenorhabditis elegans
Conditions: repellent or high concentration of attractant
Protocol: The RNAi assay was carried out by performing an RNAi method involving the feeding (feeding RNAi method) of eri-1 (mg366) (19), using an Ahringer library (37).
Nine adult eri-1 mutants were placed on an NGM plate containing isopropyl 1-D-1-thiogalactopyranoside (0.19 g/L), ampicillin (60 mg/L), and Escherichia coli (E. coli), and were then cultured for 4 days. Subsequently, the adult worms were used in a chemotaxis assay. The chemotaxis assay was carried out as previously reported (6, 17). In the chemotaxis assay, the present inventor has used 30 to 50 worms in each experiment in which 1 μl of 10^−3- or 10^−4-diluted odorant (low concentration), or 1 and 5 μl of undiluted odorants (high concentration) were used.
The z score and a control value in each single test from 2SD were calculated in all days (Table 3) or every day. The z score was used as a threshold indicating a great difference (−1.96 and 1.96, P<0.05). […] Accordingly, the present inventor has used the z score±1 (−0.96 and 0.96, P<0.33) as a weaker threshold.

Q: How did the chemotaxis index (Control nematodes) turn out when `CC(=O)C(C)=O` [High Da] was run?
A: The chemotaxis index was −0.62 ± 0.012.

Q: And the chemotaxis index (srh-4 RNAi-treated nematodes)?
A: Its chemotaxis index is −0.81.

Q: And the chemotaxis index (srh-7 RNAi-treated nematodes)?
A: The chemotaxis index was −0.83.

Q: What about the chemotaxis index (srh-8 RNAi-treated nematodes) of the same molecule?
A: Its chemotaxis index is −0.63.

Q: And the chemotaxis index (srh-10 RNAi-treated nematodes)?
A: The chemotaxis index was 0.20.

Q: What about the chemotaxis index (srh-11 RNAi-treated nematodes) of the same molecule?
A: Its chemotaxis index is −0.65.

Q: What about the chemotaxis index (srh-15 RNAi-treated nematodes) of the same molecule?
A: The chemotaxis index was −0.54.

Q: What about the chemotaxis index (srh-16 RNAi-treated nematodes) of the same molecule?
A: The chemotaxis index was −0.65.

Q: What about the chemotaxis index (srh-18 RNAi-treated nematodes) of the same molecule?
A: Its chemotaxis index is −0.74.

Q: What about the chemotaxis index (srh-19 RNAi-treated nematodes) of the same molecule?
A: Its chemotaxis index is −0.43.

Q: What about the chemotaxis index (srh-22 RNAi-treated nematodes) of the same molecule?
A: Its chemotaxis index is −0.74.

Q: And the chemotaxis index (srh-23 RNAi-treated nematodes)?
A: The chemotaxis index was −0.87.

Q: What about the chemotaxis index (srh-24 RNAi-treated nematodes) of the same molecule?
A: Its chemotaxis index is −0.67.

Q: What about the chemotaxis index (srh-25 RNAi-treated nematodes) of the same molecule?
A: The chemotaxis index was −0.22.

Q: What about the chemotaxis index (srh-27 RNAi-treated nematodes) of the same molecule?
A: Its chemotaxis index is −0.80.

Q: What about the chemotaxis index (srh-28 RNAi-treated nematodes) of the same molecule?
A: The chemotaxis index was −0.58.

Q: And the chemotaxis index (srh-36 RNAi-treated nematodes)?
A: The chemotaxis index was −0.46.

Q: And the chemotaxis index (srh-37 RNAi-treated nematodes)?
A: Its chemotaxis index is −0.34.

Q: What about the chemotaxis index (srh-39 RNAi-treated nematodes) of the same molecule?
A: Its chemotaxis index is −0.51.

Q: And the chemotaxis index (srh-40 RNAi-treated nematodes)?
A: Its chemotaxis index is −0.46.

Q: And the chemotaxis index (srh-41 RNAi-treated nematodes)?
A: The chemotaxis index was −0.21.

Q: What about the chemotaxis index (srh-44 RNAi-treated nematodes) of the same molecule?
A: The chemotaxis index was −0.25.

Q: What about the chemotaxis index (srh-45 RNAi-treated nematodes) of the same molecule?
A: The chemotaxis index was −0.47.

Q: And the chemotaxis index (srh-46 RNAi-treated nematodes)?
A: Its chemotaxis index is −0.82.

Q: And the chemotaxis index (srh-48 RNAi-treated nematodes)?
A: The chemotaxis index was −0.49.

Q: What about the chemotaxis index (srh-49 RNAi-treated nematodes) of the same molecule?
A: Its chemotaxis index is −0.62.

Q: And the chemotaxis index (srh-50 RNAi-treated nematodes)?
A: Its chemotaxis index is −0.52.

Q: What about the chemotaxis index (srh-51 RNAi-treated nematodes) of the same molecule?
A: The chemotaxis index was −0.73.

Q: And the chemotaxis index (srh-52 RNAi-treated nematodes)?
A: The chemotaxis index was −0.78.

Q: What about the chemotaxis index (srh-55 RNAi-treated nematodes) of the same molecule?
A: The chemotaxis index was −0.78.

Q: What about the chemotaxis index (srh-59 RNAi-treated nematodes) of the same molecule?
A: The chemotaxis index was −0.24.

Q: And the chemotaxis index (srh-60 RNAi-treated nematodes)?
A: The chemotaxis index was −0.64.

Q: And the chemotaxis index (srh-61 RNAi-treated nematodes)?
A: Its chemotaxis index is −0.57.

Q: What about the chemotaxis index (srh-67 RNAi-treated nematodes) of the same molecule?
A: Its chemotaxis index is −0.58.

Q: What about the chemotaxis index (srh-68 RNAi-treated nematodes) of the same molecule?
A: Its chemotaxis index is −0.49.

Q: And the chemotaxis index (srh-69 RNAi-treated nematodes)?
A: The chemotaxis index was −0.76.

Q: And the chemotaxis index (srh-70 RNAi-treated nematodes)?
A: The chemotaxis index was −0.87.

Q: And the chemotaxis index (srh-71 RNAi-treated nematodes)?
A: The chemotaxis index was −0.38.

Q: What about the chemotaxis index (srh-72 RNAi-treated nematodes) of the same molecule?
A: Its chemotaxis index is −0.73.

Q: And the chemotaxis index (srh-74 RNAi-treated nematodes)?
A: Its chemotaxis index is −0.54.

Q: And the chemotaxis index (srh-75 RNAi-treated nematodes)?
A: Its chemotaxis index is −0.42.

Q: And the chemotaxis index (srh-77 RNAi-treated nematodes)?
A: Its chemotaxis index is −0.34.

Q: What about the chemotaxis index (srh-79 RNAi-treated nematodes) of the same molecule?
A: The chemotaxis index was 0.35.

Q: What about the chemotaxis index (srh-80 RNAi-treated nematodes) of the same molecule?
A: Its chemotaxis index is −0.48.

Q: And the chemotaxis index (srh-82 RNAi-treated nematodes)?
A: Its chemotaxis index is −0.36.

Q: What about the chemotaxis index (srh-83 RNAi-treated nematodes) of the same molecule?
A: Its chemotaxis index is −0.23.

Q: What about the chemotaxis index (srh-97 RNAi-treated nematodes) of the same molecule?
A: Its chemotaxis index is −0.42.

Q: And the chemotaxis index (srh-99 RNAi-treated nematodes)?
A: The chemotaxis index was −0.24.

Q: And the chemotaxis index (srh-100 RNAi-treated nematodes)?
A: Its chemotaxis index is −0.75.

Q: What about the chemotaxis index (srh-104 RNAi-treated nematodes) of the same molecule?
A: The chemotaxis index was −0.39.

Q: What about the chemotaxis index (srh-105 RNAi-treated nematodes) of the same molecule?
A: The chemotaxis index was −0.58.

Q: And the chemotaxis index (srh-109 RNAi-treated nematodes)?
A: The chemotaxis index was −0.59.

Q: And the chemotaxis index (srh-111 RNAi-treated nematodes)?
A: The chemotaxis index was −0.35.

Q: What about the chemotaxis index (srh-113 RNAi-treated nematodes) of the same molecule?
A: Its chemotaxis index is −0.62.

Q: What about the chemotaxis index (srh-115 RNAi-treated nematodes) of the same molecule?
A: Its chemotaxis index is −0.57.

Q: What about the chemotaxis index (srh-116 RNAi-treated nematodes) of the same molecule?
A: Its chemotaxis index is −0.36.

Q: What about the chemotaxis index (srh-118 RNAi-treated nematodes) of the same molecule?
A: Its chemotaxis index is −0.64.

Q: And the chemotaxis index (srh-119 RNAi-treated nematodes)?
A: Its chemotaxis index is −0.78.

Q: And the chemotaxis index (srh-120 RNAi-treated nematodes)?
A: Its chemotaxis index is −0.66.

Q: What about the chemotaxis index (srh-122 RNAi-treated nematodes) of the same molecule?
A: The chemotaxis index was −0.53.

Q: And the chemotaxis index (srh-123 RNAi-treated nematodes)?
A: Its chemotaxis index is −0.55.

Q: And the chemotaxis index (srh-125 RNAi-treated nematodes)?
A: The chemotaxis index was −0.59.

Q: And the chemotaxis index (srh-128 RNAi-treated nematodes)?
A: Its chemotaxis index is −0.48.

Q: And the chemotaxis index (srh-129 RNAi-treated nematodes)?
A: The chemotaxis index was −0.69.

Q: And the chemotaxis index (srh-130 RNAi-treated nematodes)?
A: Its chemotaxis index is −0.37.

Q: What about the chemotaxis index (srh-131 RNAi-treated nematodes) of the same molecule?
A: The chemotaxis index was −0.34.

Q: And the chemotaxis index (srh-132 RNAi-treated nematodes)?
A: The chemotaxis index was −0.83.

Q: What about the chemotaxis index (srh-139 RNAi-treated nematodes) of the same molecule?
A: Its chemotaxis index is −0.42.

Q: And the chemotaxis index (srh-140 RNAi-treated nematodes)?
A: The chemotaxis index was −0.46.

Q: What about the chemotaxis index (srh-141 RNAi-treated nematodes) of the same molecule?
A: Its chemotaxis index is −0.77.

Q: What about the chemotaxis index (srh-142 RNAi-treated nematodes) of the same molecule?
A: Its chemotaxis index is −0.49.

Q: And the chemotaxis index (srh-145 RNAi-treated nematodes)?
A: The chemotaxis index was −0.85.

Q: And the chemotaxis index (srh-148 RNAi-treated nematodes)?
A: The chemotaxis index was −0.69.

Q: What about the chemotaxis index (srh-154 RNAi-treated nematodes) of the same molecule?
A: Its chemotaxis index is −0.65.

Q: And the chemotaxis index (srh-159 RNAi-treated nematodes)?
A: The chemotaxis index was −0.45.

Q: What about the chemotaxis index (srh-165 RNAi-treated nematodes) of the same molecule?
A: Its chemotaxis index is −0.79.

Q: And the chemotaxis index (srh-166 RNAi-treated nematodes)?
A: Its chemotaxis index is −0.83.

Q: What about the chemotaxis index (srh-167 RNAi-treated nematodes) of the same molecule?
A: Its chemotaxis index is −0.89.

Q: What about the chemotaxis index (srh-169 RNAi-treated nematodes) of the same molecule?
A: The chemotaxis index was −0.92.

Q: And the chemotaxis index (srh-174 RNAi-treated nematodes)?
A: The chemotaxis index was −0.69.

Q: And the chemotaxis index (srh-179 RNAi-treated nematodes)?
A: The chemotaxis index was −0.87.

Q: And the chemotaxis index (srh-182 RNAi-treated nematodes)?
A: Its chemotaxis index is −0.86.

Q: What about the chemotaxis index (srh-186 RNAi-treated nematodes) of the same molecule?
A: The chemotaxis index was −0.80.

Q: And the chemotaxis index (srh-190 RNAi-treated nematodes)?
A: The chemotaxis index was −0.91.

Q: What about the chemotaxis index (srh-193 RNAi-treated nematodes) of the same molecule?
A: Its chemotaxis index is −0.53.

Q: And the chemotaxis index (srh-195 RNAi-treated nematodes)?
A: Its chemotaxis index is −0.80.

Q: And the chemotaxis index (srh-201 RNAi-treated nematodes)?
A: The chemotaxis index was −0.95.

Q: And the chemotaxis index (srh-203 RNAi-treated nematodes)?
A: The chemotaxis index was −0.94.

Q: And the chemotaxis index (srh-204 RNAi-treated nematodes)?
A: The chemotaxis index was −0.89.

Q: What about the chemotaxis index (srh-206 RNAi-treated nematodes) of the same molecule?
A: Its chemotaxis index is −0.79.

Q: What about the chemotaxis index (srh-207 RNAi-treated nematodes) of the same molecule?
A: The chemotaxis index was −0.87.

Q: And the chemotaxis index (srh-208 RNAi-treated nematodes)?
A: The chemotaxis index was −0.76.

Q: What about the chemotaxis index (srh-209 RNAi-treated nematodes) of the same molecule?
A: The chemotaxis index was −0.70.

Q: What about the chemotaxis index (srh-210 RNAi-treated nematodes) of the same molecule?
A: The chemotaxis index was −0.56.

Q: What about the chemotaxis index (srh-214 RNAi-treated nematodes) of the same molecule?
A: Its chemotaxis index is −0.60.

Q: And the chemotaxis index (srh-216 RNAi-treated nematodes)?
A: The chemotaxis index was −0.61.

Q: And the chemotaxis index (srh-217 RNAi-treated nematodes)?
A: The chemotaxis index was −0.50.

Q: And the chemotaxis index (srh-220 RNAi-treated nematodes)?
A: The chemotaxis index was −0.42.

Q: What about the chemotaxis index (srh-222 RNAi-treated nematodes) of the same molecule?
A: The chemotaxis index was −0.66.

Q: What about the chemotaxis index (srh-223 RNAi-treated nematodes) of the same molecule?
A: The chemotaxis index was −0.50.
